Laboratory results as given in patent US20240190883A1, “KRAS PROTEIN DEGRADERS, PHARMACEUTICAL COMPOSITIONS THEREOF, AND THEIR THERAPEUTIC APPLICATIONS” (BioTheryX, Inc., priority 2021, published 2024).
Like-named read-outs stand apart in the source and are kept apart here.

Tests used:
Assay type in all cases: cell-based
KRAS protein = biological target: T1, KRAS protein (Homo sapiens, UniProt P01116); assay: HIBIT degradation assay, HEK293 cells; conditions: compound at 3 μM, 24 h, HiBiT signal normalized to CTG signal
T1 construct: engineered to express a Hobbit-tagged endogenous KRAS protein; endogenous in cells; host or cells: HEK293, endogenous KRAS locus engineered with a HiBiT tag
Procedure: HEK293, MIA PaCa-2, AsPc-1, SW620, and H647 cells were engineered to express a […] endogenous KRAS protein. The HEK293 and MIA PaCa-2 cells were cultured in DMEM media supplemented with 10% fetal bovine serum, streptomycin, and penicillin. The AsPc-1, SW620, and H647 were cultured in RPMI media supplemented with 10% fetal bovine serum, streptomycin, and penicillin. The cells were seeded in white walled 96-well plates at 20,000 cells/well in 100 μL culture media in duplicate plates. After incubated at 37° C. under 5% CO2 overnight, the cells were treated with DMSO (control) or a compound, followed by the addition of 100 μL culture media to each well. After the cells were incubated for 24 h at 37° C. under 5% C02, 150 μL media were removed from each well and 50 μL NANOGLO-LGBIT lytic reagent were added to each well, and 50 μL CELLTITER-GLO (CTG) reagent was added to the duplicate plate. Following a 10-minute incubation with shaking, luminescence was measured using a Perkin Elmer ENVISION multimode plate reader. HiBiT signal was normalized to CTG signal. The results are summarized in Table 3, where “A” represents a percentage degradation value of no less than 50%; “B” represents a percentage degradation value of less than 50% and no less than 25%; “C” represents a percentage degradation value of less than 25% and no less than 10%; and “D” represents a percentage degradation value of less than 10%.

SW48 (wt) cells = assay: Cell viability assay (CELLTITER-GLO), SW48 cells; conditions: 3 days incubation, 2.5% fetal bovine serum, read-out: Inhibition of Cancerous Cells IC50 (μM) SW48 (wt)
Procedure: (§1) H358, H23, SW48, and AsPC-1 cells were cultured in RPMI 1640 media supplemented with 10% fetal bovine serum, streptomycin, and penicillin. Lovo and SW480 cells were cultured in DMEM media supplemented with 10% fetal bovine serum, streptomycin, and penicillin. The cell lines were plated in their respective medium supplemented with 2.5% fetal bovine serum, streptomycin, and penicillin. All cell lines were plated in white walled 96-well plates at 2,000 cells/well or 384-well plates at 500 cells/well, except Lovo, which were plated at 4,000 or 1,000 cells/well, respectively. The cells were incubated in DMSO (control) or a compound for 3 days at 37° C. under 5% C02. A CELLTITER-GLO® reagent (100 μL) was then added to each well. After a 10 min incubation with shaking, luminescence was measured using an ENVISION® multimode plate reader. IC50 values are summarized in Table 1 and percentages of inhibition are summarized in Table 2, where compound T1 is 2-(4-(2-methyl-3,5-diphenylpyrazolo[1,5-a]pyrimidin-7-yl)piperazin-1-yl)ethan-1-ol.

H358 (G12C) cells = assay: Cell viability assay (CELLTITER-GLO), H358 cells; conditions: 3 days incubation, 2.5% fetal bovine serum, read-out: Inhibition of Cancerous Cells IC50 (μM) H358 (G12C)
Procedure: as §1

Lovo (G13D) cells = assay: Cell viability assay (CELLTITER-GLO), Lovo cells; conditions: 3 days incubation, 2.5% fetal bovine serum, read-out: Inhibition of Cancerous Cells IC50 (μM) Lovo (G13D)
Procedure: as §1

AsPC-1 (G12D) cells = assay: Cell viability assay (CELLTITER-GLO), AsPC-1 cells; conditions: 3 days incubation, 2.5% fetal bovine serum, read-out: Inhibition of Cancerous Cells IC50 (μM) AsPC-1 (G12D)
Procedure: as §1

SW480 (G12V) cells = assay: Cell viability assay (CELLTITER-GLO), SW480 cells; conditions: 3 days incubation, 2.5% fetal bovine serum, read-out: Inhibition of Cancerous Cells IC50 (μM) SW480 (G12V)
Procedure: as §1

Molm-13 cells = assay: Cell viability assay, inhibition of Molm-13 cells; conditions: Homo sapiens; for inhibition at 1 µM: compound at 1 μM; for inhibition at 3 µM: compound at 3 μM
Procedure: [Worded in the source for another cell line; this cell line is reported under the same test.] as §1

T1 sequence (P01116 1-188 isoform P01116-2): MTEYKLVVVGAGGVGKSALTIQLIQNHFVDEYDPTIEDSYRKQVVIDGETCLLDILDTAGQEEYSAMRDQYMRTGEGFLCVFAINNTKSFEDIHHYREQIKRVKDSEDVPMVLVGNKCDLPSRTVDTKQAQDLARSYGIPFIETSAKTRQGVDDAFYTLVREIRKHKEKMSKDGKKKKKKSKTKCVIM

IC50 (SW48 (wt) cells; Homo sapiens, 72 h)	IC50 (H358 (G12C) cells; Homo sapiens, NCI-H358, 72 h)	IC50 (Lovo (G13D) cells; Homo sapiens, 72 h)	IC50 (AsPC-1 (G12D) cells; Homo sapiens, ASPC1, 72 h)	IC50 (SW480 (G12V) cells; Homo sapiens, 72 h)	Compound	other results
2 µM	1.1 µM	0.66 µM	2.3 µM	0.76 µM	Cc1nn2c(N3CCN(CCO)CC3)cc(-c3ccccc3)nc2c1-c1cccc(CCCN2CCN(C(=O)CNc3ccc4c(N5CCC(=O)NC5=O)nn(C)c4c3)CC2)c1 [Compound D13, 1-(6-((2-(4-(3-(3-(7-(4-(2-Hydroxyethyl)piperazin-1-yl)-2-methyl-5-phenyl-pyrazolo[1,5-a]pyrimidin-3-yl)phenyl)propyl)piperazin-1-yl)-2-oxoethyl)amino)-1-methyl-1H-indazol-3-yl)dihydropyrimidine-2,4(1H,3H)-dione]	
0.72 µM	1.2 µM	0.63 µM	1.3 µM	0.4 µM	Cc1nn2c(N3CCN(CCO)CC3)cc(-c3ccccc3)nc2c1-c1cccc(CCCCCN2CCN(C(=O)CNc3ccc4c(C5CCC(=O)NC5=O)nn(C)c4c3)CC2)c1 (stereo not shown) [Compound D8, 3-(6-((2-(4-(5-(3-(7-(4-(2-Hydroxyethyl)piperazin-1-yl)-2-methyl-5-phenyl-pyrazolo[1,5-a]pyrimidin-3-yl)phenyl)pentyl)piperazin-1-yl)-2-oxoethyl)amino)-1-methyl-1H-indazol-3-yl)piperidine-2,6-dione]	
1.2 µM	3.3 µM	1.3 µM	1.3 µM	0.86 µM	Cc1nn2c(N3CCN(CCO)CC3)cc(-c3ccccc3)nc2c1-c1cccc(CCCN2CCN(C(=O)CNc3ccc4c(C5CCC(=O)NC5=O)nn(C)c4c3)CC2)c1 (stereo not shown) [Compound D7, 3-(6-((2-(4-(3-(3-(7-(4-(2-Hydroxyethyl)piperazin-1-yl)-2-methyl-5-phenyl-pyrazolo[1,5-a]pyrimidin-3-yl)phenyl)propyl)piperazin-1-yl)-2-oxoethyl)amino)-1-methyl-1H-indazol-3-yl)piperidine-2,6-dione]	
1.1 µM	1.3 µM	0.64 µM	1.4 µM	0.56 µM	Cc1nn2c(N3CCN(CCO)CC3)cc(-c3ccccc3)nc2c1-c1cccc(CCCCCCCN2CCN(C(=O)CNc3ccc4c(N5CCC(=O)NC5=O)nn(C)c4c3)CC2)c1 [Compound D15, 1-(6-((2-(4-(7-(3-(7-(4-(2-Hydroxyethyl)piperazin-1-yl)-2-methyl-5-phenyl-pyrazolo[1,5-a]pyrimidin-3-yl)phenyl)heptyl)piperazin-1-yl)-2-oxoethyl)amino)-1-methyl-1H-indazol-3-yl)dihydropyrimidine-2,4(1H,3H)-dione]	
0.72 µM	1 µM	0.51 µM	1.3 µM	0.46 µM	Cc1nn2c(N3CCN(CCO)CC3)cc(-c3ccccc3)nc2c1-c1cccc(CCCCCCCN2CCN(C(=O)CNc3ccc4c(C5CCC(=O)NC5=O)nn(C)c4c3)CC2)c1 (stereo not shown) [Compound D9, 3-(6-((2-(4-(7-(3-(7-(4-(2-Hydroxyethyl)piperazin-1-yl)-2-methyl-5-phenyl-pyrazolo[1,5-a]pyrimidin-3-yl)phenyl)heptyl)piperazin-1-yl)-2-oxoethyl)amino)-1-methyl-1H-indazol-3-yl)piperidine-2,6-dione]	

Further lines, the compound ahead of its results:

Compound	IC50 (SW48 (wt) cells; Homo sapiens, 72 h)	IC50 (H358 (G12C) cells; Homo sapiens, NCI-H358, 72 h)	IC50 (Lovo (G13D) cells; Homo sapiens, 72 h)	IC50 (AsPC-1 (G12D) cells; Homo sapiens, ASPC1, 72 h)	IC50 (SW480 (G12V) cells; Homo sapiens, 72 h)	other results
Cc1nn2c(N3CCN(CCO)CC3)cc(-c3cccc(CCCCCCCN4CCN(C(=O)COc5cccc(N6CCC(=O)NC6=O)c5)CC4)c3)nc2c1-c1ccccc1 [Compound C2, 1-(3-(2-(4-(7-(3-(7-(4-(2-Hydroxyethyl)piperazin-1-yl)-2-methyl-3-phenyl-pyrazolo[1,5-a]pyrimidin-5-yl)phenyl)heptyl)piperazin-1-yl)-2-oxoethoxy)phenyl)dihydro-pyrimidine-2,4(1H,3H)-dione]						Effect on KRAS Protein Degradation, HEK293, 3 μM (KRAS protein): B (a percentage degradation value of less than 50% and no less than 25%)
Cc1nn2c(N3CCN(CCO)CC3)cc(-c3ccccc3)nc2c1-c1cccc(CCCCCN2CCN(C(=O)CNc3ccc4c(N5CCC(=O)NC5=O)nn(C)c4c3)CC2)c1 [Compound D14, 1-(6-((2-(4-(5-(3-(7-(4-(2-Hydroxyethyl)piperazin-1-yl)-2-methyl-5-phenyl-pyrazolo[1,5-a]pyrimidin-3-yl)phenyl)pentyl)piperazin-1-yl)-2-oxoethyl)amino)-1-methyl-1H-indazol-3-yl)dihydropyrimidine-2,4(1H,31H)-dione]						IC50 (SW48 (wt) cells): > 10 µM; IC50 (H358 (G12C) cells): 2.2 µM; IC50 (Lovo (G13D) cells): 0.62 µM; IC50 (AsPC-1 (G12D) cells): > 10 µM; IC50 (SW480 (G12V) cells): 1.1 µM
Cc1nn2c(N3CCN(CCO)CC3)cc(-c3ccccc3)nc2c1-c1cccc(CCCCCN2CCN(C(=O)COc3cccc(N4CCC(=O)NC4=O)c3)CC2)c1 [Compound C10, 1-(3-(2-(4-(5-(3-(7-(4-(2-Hydroxyethyl)piperazin-1-yl)-2-methyl-5-phenyl-pyrazolo[1,5-a]pyrimidin-3-yl)phenyl)pentyl)piperazin-1-yl)-2-oxoethoxy)phenyl)dihydro-pyrimidine-2,4(1H,3H)-dione]						inhibition at 1 µM (Molm-13 cells): 29%; inhibition at 3 µM (Molm-13 cells): 98%
Cc1nn2c(N3CCN(CCO)CC3)cc(-c3ccccc3)nc2c1-c1cccc(CCCCCCCCCN2CCN(C(=O)COc3ccc(N4CCC(=O)NC4=O)cc3)CC2)c1 [Compound C9, 1-(4-(2-(4-(9-(3-(7-(4-(2-hydroxyethyl)piperazin-1-yl)-2-methyl-5-phenyl-pyrazolo[1,5-a]pyrimidin-3-yl)phenyl)nonyl)piperazin-1-yl)-2-oxoethoxy)phenyl)dihydro-pyrimidine-2,4(1H,3H)-dione]	0.48 µM	1.1 µM	0.47 µM	0.96 µM	0.42 µM	
Cc1nn2c(N3CCN(CCO)CC3)cc(-c3cccc(CCCN4CCN(C(=O)CNc5ccc6c(C7CCC(=O)NC7=O)nn(C)c6c5)CC4)c3)nc2c1-c1ccccc1 (stereo not shown) [Compound D1, 3-(6-((2-(4-(3-(3-(7-(4-(2-Hydroxyethyl)piperazin-1-yl)-2-methyl-3-phenyl-pyrazolo[1,5-a]pyrimidin-5-yl)phenyl)propyl)piperazin-1-yl)-2-oxoethyl)amino)-1-methyl-1H-indazol-3-yl)piperidine-2,6-dione]						inhibition at 1 µM (Molm-13 cells): 24%; inhibition at 3 µM (Molm-13 cells): 98%
